One assay concerns rise in blood sugar. The assay is described as follows: Action to depress the rise in blood sugar after sucrose loading to mice. Type of assay: in vivo, ICR male mice. The conditions noted are these: for Rise in blood sugar / action to depress the rise in blood sugar due to sucrose loading (in words): sucrose 1 g/kg; for Rise in blood sugar: average ± standard error; for action to depress the rise in blood sugar due to sucrose loading (in words): orally 25, 50 and 100 mg/kg (L-arabinose, D-xylose) or 100 mg/kg (others); for action to depress the rise in blood sugar for sucrose or starch loading (in words): summary statement.

The target in assay [1] is T1, sucrase (carbohydrase derived from rabbit small intestine mucous membrane) (Oryctolagus cuniculus, UniProt P07768).
T1 construct: suspended again in a 10 mM potassium phosphate buffer (pH: 7.0), thereby obtaining a crude enzyme suspension; from tissue; host or cells: rabbit small intestine (title: mucous membrane), homogenate, 60,000×g precipitate
The assay is described as follows: Action to inhibit the hydrolytic activity of homogenate prepared from rabbit small intestine mucous membrane: sucrase inhibition. Type of assay: biochemical. The conditions noted are these: for inhibition at 250 µg/mL / inhibition at 500 µg/mL / inhibition at 1000 µg/mL / inhibition at 2000 µg/mL: 0.25 h, substrate sucrose 20 mM, pH 6.8, 37° C., 15 minutes, read-out: Sucrase inhibition rate; for inhibition at 250 µg/mL: 25 mg/dl; for inhibition at 500 µg/mL: 50 mg/dl; for inhibition at 1000 µg/mL: 100 mg/dl; for inhibition at 2000 µg/mL: 200 mg/dl. How it is done: (§1) (Action to inhibit the hydrolytic activity of homogenate prepared from rabbit small intestine mucous membrane to carbohydrate)
(§2) A native kind of white rabbits (weight: 3.0-3.5 kg) were sacrificed by exsanguination to take out their small intestines.
(§3) After freezing and thawing the small intestines thus taken out, they were homogenized in a 5 mM EDTA buffer (pH: 7.0) and subjected to centrifugation for 60 minutes at 60,000×g. Precipitate thus formed was collected and suspended again in a 10 mM potassium phosphate buffer (pH: 7.0), thereby obtaining a crude enzyme suspension.
(§4) Sucrose (20 mM) and maltose (20 mM) were used as substrates.
(§5) Each reaction mixture was formulated so as to contain 350 microliters of a 100 mM maleate buffer (pH: 6.8), 100 microliters of a substrate solution, 50 microliters of the crude enzyme suspension and 50 microliters of a test solution. Substances to be tested were separately dissolved in a maleate buffer (pH: 6.8) before use.
(§6) Respective reactions were conducted for 15 minutes at 37° C.

For assay [2], the system named is maltase (carbohydrase derived from rabbit small intestine mucous membrane). The experiment in a line: Action to inhibit the hydrolytic activity of homogenate prepared from rabbit small intestine mucous membrane: maltase inhibition. Type of assay: biochemical. The conditions noted are these: for Maltase inhibition rate: substrate maltose 20 mM, pH 6.8, 37° C., 15 minutes. The procedure:
as §1, §2, §3, §4, §5, §6

The mark [3] stands for this setting: dose 100 mg/kg oral, after 30 min.
Where [4] appears, read: dose 100 mg/kg oral, after 60 min.
The mark [5] stands for this setting: dose 100 mg/kg oral, after 120 min.

In general, inhibition refers to the share of the control response that was lost under treatment.

T1 sequence (P07768 1008-1827 limits assumed): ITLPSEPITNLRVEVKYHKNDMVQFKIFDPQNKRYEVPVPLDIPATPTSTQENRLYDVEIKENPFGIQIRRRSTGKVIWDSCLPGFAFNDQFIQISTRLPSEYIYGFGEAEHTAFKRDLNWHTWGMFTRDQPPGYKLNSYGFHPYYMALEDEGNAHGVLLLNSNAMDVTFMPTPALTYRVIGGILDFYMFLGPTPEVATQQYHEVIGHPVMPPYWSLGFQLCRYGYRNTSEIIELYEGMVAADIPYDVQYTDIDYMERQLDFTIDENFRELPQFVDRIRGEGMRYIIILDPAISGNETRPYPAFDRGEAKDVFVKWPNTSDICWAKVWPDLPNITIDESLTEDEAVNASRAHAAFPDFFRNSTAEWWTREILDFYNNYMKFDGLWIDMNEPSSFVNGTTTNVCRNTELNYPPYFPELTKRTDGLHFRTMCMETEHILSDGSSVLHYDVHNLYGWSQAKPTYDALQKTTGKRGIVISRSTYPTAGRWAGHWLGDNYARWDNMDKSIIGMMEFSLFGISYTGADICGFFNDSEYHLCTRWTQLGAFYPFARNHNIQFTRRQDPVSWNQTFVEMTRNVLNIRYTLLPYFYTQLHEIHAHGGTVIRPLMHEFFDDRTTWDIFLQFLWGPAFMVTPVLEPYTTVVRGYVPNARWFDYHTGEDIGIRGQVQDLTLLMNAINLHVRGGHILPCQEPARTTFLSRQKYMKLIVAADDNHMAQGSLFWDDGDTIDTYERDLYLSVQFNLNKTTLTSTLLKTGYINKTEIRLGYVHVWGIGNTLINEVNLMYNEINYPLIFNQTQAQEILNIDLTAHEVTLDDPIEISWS
T1 sequence (P07768 2-1007 partner limits assumed): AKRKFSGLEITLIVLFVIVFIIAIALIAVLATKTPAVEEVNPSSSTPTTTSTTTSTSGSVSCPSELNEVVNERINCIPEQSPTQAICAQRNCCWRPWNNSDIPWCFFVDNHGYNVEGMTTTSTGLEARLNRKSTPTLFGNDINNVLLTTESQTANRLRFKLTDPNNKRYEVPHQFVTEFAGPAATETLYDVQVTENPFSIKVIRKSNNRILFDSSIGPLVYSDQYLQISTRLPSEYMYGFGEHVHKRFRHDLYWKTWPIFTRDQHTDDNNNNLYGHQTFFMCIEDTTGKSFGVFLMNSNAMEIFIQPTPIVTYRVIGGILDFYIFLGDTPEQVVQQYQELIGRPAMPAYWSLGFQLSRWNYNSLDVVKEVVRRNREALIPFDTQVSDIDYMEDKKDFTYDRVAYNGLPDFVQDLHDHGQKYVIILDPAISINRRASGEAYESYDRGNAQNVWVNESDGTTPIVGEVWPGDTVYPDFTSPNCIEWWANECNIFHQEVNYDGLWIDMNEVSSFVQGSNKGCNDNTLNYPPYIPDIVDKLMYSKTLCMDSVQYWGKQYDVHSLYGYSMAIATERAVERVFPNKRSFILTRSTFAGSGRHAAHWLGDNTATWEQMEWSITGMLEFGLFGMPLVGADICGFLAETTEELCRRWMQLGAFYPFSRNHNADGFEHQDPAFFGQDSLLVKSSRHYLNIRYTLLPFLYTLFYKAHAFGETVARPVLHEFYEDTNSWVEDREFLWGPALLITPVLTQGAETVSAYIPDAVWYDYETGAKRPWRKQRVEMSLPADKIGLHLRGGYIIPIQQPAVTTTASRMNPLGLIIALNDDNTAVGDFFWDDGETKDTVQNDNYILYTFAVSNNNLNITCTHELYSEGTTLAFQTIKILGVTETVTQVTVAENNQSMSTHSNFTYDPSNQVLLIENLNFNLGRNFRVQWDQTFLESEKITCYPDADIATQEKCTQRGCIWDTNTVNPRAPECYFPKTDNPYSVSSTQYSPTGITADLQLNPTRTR
Description for rise in blood sugar: (Action to depress the rise in blood sugar after carbohydrate loading)
ICR male mice (weight 30-35 g) were used in proportions of 5 mice per group.
After causing the mice to fast, sucrose or starch was orally administered in a proportion of 1 g/kg to the mice of each group, and at the same time substances to be tested were orally given to mice of their corresponding groups.
Blood was collected from the retroorbital sinus of each mouse before carbohydrate loading and upon elapsed times of 30 minutes, 60 minutes and 120 minutes after the loading to determine the concentration of glucose in the blood plasma by the glucose oxidase method.

As to `O=C(CO)[C@@H](O)[C@@H](O)[C@H](O)CO` [D-Tagatose, D-tagatose], the “Rise in blood sugar” value is 60.7 Δmg/dl in the assay on rise in blood sugar (setting [3]), 44.4 Δmg/dl with rise in blood sugar (setting [4]) and 26.3 Δmg/dl in the assay with rise in blood sugar (setting [5]). In addition, the “action to depress the rise in blood sugar due to sucrose loading (in words)” value (from here on “action … to sucrose loading (in words)”) in the assay on rise in blood sugar is “significantly depressed”. Moreover, the “action to depress the rise in blood sugar for sucrose or starch loading (in words)” value in the assay with rise in blood sugar was “effective action to depress the rise in blood sugar”. Besides, the “sucrase-inhibiting action (in words)” value in assay [1] is “strong sucrase-inhibiting action”. For the same compound, in assay [1], the inhibition at 250 µg/mL was found to be 8.9%. For the same compound, the inhibition at 500 µg/mL in assay [1] is 15.7%. Moreover, in assay [1], the inhibition at 1000 µg/mL came out at 30%. Also, in assay [1], the inhibition at 2000 µg/mL was found to be 36.6%. Further, the “maltase-inhibiting action (in words)” value in assay [2] was “strong sucrase-inhibiting action and maltase-inhibiting action”. Further, the Maltase inhibition rate in assay [2] (25 mg/dl) was determined as 12.5%; in assay [2] (50 mg/dl), 17.7%; in assay [2] (100 mg/dl), 30.3%; in assay [2] (200 mg/dl) it was 33.9%.
Turning to `O=C[C@H](O)[C@@H](O)[C@H](O)CO` [D-Xylose, D-xylose], the “Rise in blood sugar” value is on record as 76.3 Δmg/dl in the assay on rise in blood sugar (dose 25 mg/kg oral, after 30 min.); 55.4 Δmg/dl with rise in blood sugar (dose 25 mg/kg oral, after 60 min.); 62.5 Δmg/dl in the assay on rise in blood sugar (dose 50 mg/kg oral, after 30 min.); 47.3 Δmg/dl in the assay with rise in blood sugar (dose 50 mg/kg oral, after 60 min.); 24.0 Δmg/dl in the assay with rise in blood sugar (dose 50 mg/kg oral, after 120 min.); 38.2 Δmg/dl in the assay on rise in blood sugar (setting [3]). Also, the “Rise in blood sugar” value with rise in blood sugar (setting [4]) is on record as 45.2 Δmg/dl; in the assay on rise in blood sugar (setting [5]), 23.4 Δmg/dl. Also, the “action … to sucrose loading (in words)” value with rise in blood sugar is given as “depressed in dependence on the dose”. Besides, the “action to depress the rise in blood sugar for sucrose or starch loading (in words)” value in the assay on rise in blood sugar is “effective action to depress the rise in blood sugar”. For the same compound, in assay [1], the “sucrase-inhibiting action (in words)” value is on record as “strong sucrase-inhibiting action”. In assay [1], the inhibition at 250 µg/mL came out at 28.5%. Also, the inhibition at 500 µg/mL in assay [1] came to 35.5%. The inhibition at 1000 µg/mL in assay [1] was 49.5%. The inhibition at 2000 µg/mL in assay [1] worked out at 59.8%. Besides, the “maltase-inhibiting action (in words)” value in assay [2] is “strong sucrase-inhibiting action and maltase-inhibiting action”. The Maltase inhibition rate in assay [2] (25 mg/dl) was 29.2%; in assay [2] (50 mg/dl) it was 36.4%; in assay [2] (100 mg/dl), 44.3%; in assay [2] (200 mg/dl), 53.1%.
Regarding `O=C(CO)[C@@H](O)[C@H](O)CO` [D-Xylulose, D-xylulose], the “Rise in blood sugar” value was 67.3 Δmg/dl in the assay with rise in blood sugar (setting [3]), 59.7 Δmg/dl in the assay on rise in blood sugar (setting [4]) and 27.5 Δmg/dl in the assay with rise in blood sugar (setting [5]). Also, the “action … to sucrose loading (in words)” value in the assay with rise in blood sugar was “significantly depressed”. Also, the “action to depress the rise in blood sugar for sucrose or starch loading (in words)” value with rise in blood sugar was “effective action to depress the rise in blood sugar”. Besides, the “sucrase-inhibiting action (in words)” value in assay [1] is recorded as “inhibiting actions second to these”. The inhibition at 2000 µg/mL in assay [1] is 19.9%. In addition, the “maltase-inhibiting action (in words)” value in assay [2] is “inhibiting actions second to these”. For the same compound, in assay [2] (200 mg/dl), the Maltase inhibition rate came to 11.9%.
For the compound `C[C@H](O)[C@@H](O)[C@@H](O)[C@H](O)C=O` [L-Fucose, L-fucose], the “Rise in blood sugar” value with rise in blood sugar (setting [3]) is 62.0 Δmg/dl. Further, in the assay on rise in blood sugar (setting [4]), the “Rise in blood sugar” value is reported as 44.4 Δmg/dl. Besides, the “Rise in blood sugar” value with rise in blood sugar (setting [5]) is recorded as 26.3 Δmg/dl. Besides, in the assay with rise in blood sugar, the “action … to sucrose loading (in words)” value is on record as “significantly depressed” and the “action to depress the rise in blood sugar for sucrose or starch loading (in words)” value is “effective action to depress the rise in blood sugar”. Besides, in assay [1], the “sucrase-inhibiting action (in words)” value is “strong sucrase-inhibiting action”, the inhibition at 250 µg/mL amounted to 11.6%, the inhibition at 500 µg/mL amounted to 16.2% and the inhibition at 1000 µg/mL came to 32.8%. Also, the inhibition at 2000 µg/mL in assay [1] is 30.7%. For the same compound, the “maltase-inhibiting action (in words)” value in assay [2] was “strong sucrase-inhibiting action and maltase-inhibiting action”. Further, the Maltase inhibition rate in assay [2] (25 mg/dl) was 16.4%. In assay [2] (50 mg/dl), the Maltase inhibition rate is 18.4%. In assay [2] (100 mg/dl), the Maltase inhibition rate stood at 24.8%. This compound also had a Maltase inhibition rate in assay [2] (200 mg/dl) of 31.0%.
Take `O=C[C@@H](O)[C@H](O)[C@@H](O)CO` [L-Xylose, L-xylose]: the “Rise in blood sugar” value in the assay with rise in blood sugar (setting [3]) was 66.3 Δmg/dl. For the same compound, the “Rise in blood sugar” value in the assay with rise in blood sugar (setting [4]) was 53.2 Δmg/dl. Moreover, in the assay on rise in blood sugar, the “action … to sucrose loading (in words)” value was “significantly depressed” and the “action to depress the rise in blood sugar for sucrose or starch loading (in words)” value is on record as “effective action to depress the rise in blood sugar”. Besides, in assay [1], the “sucrase-inhibiting action (in words)” value is reported as “inhibiting actions second to these”, the inhibition at 500 µg/mL is 8%, the inhibition at 1000 µg/mL was determined as 11.9% and the inhibition at 2000 µg/mL was found to be 24.5%. In addition, the “maltase-inhibiting action (in words)” value in assay [2] is “inhibiting actions second to these”. This compound yielded a Maltase inhibition rate in assay [2] (200 mg/dl) of 19.4%.

(Values after patent publication US5468734A, “Prophylactic and remedial preparation for diseases attendant on hyperglycemia, and wholesome food” (Godo Shusei Co., Ltd., priority 1992, dated 1995).)
